According to paper PMC10610214 (Pharmaceuticals, 2023):

Key:
H2O2-induced PC12 cells = assay: Neuroprotection against H2O2-induced PC12 cell injury (MTT); format: cell-based; settings: H2O2 250 μM, mean ± SEM
Experimental: Neuroprotection assay is similar to cytotoxicity. Oxidative cellular damage caused by H2O2 has become one of the important methods to study oxidative damage in neural cells. PC12 cells were seeded into a 96-well plate at a density of 5.0 × 10^3 cells per well. After the cells were incubated overnight, the old medium was discarded. […] After incubating overnight, 20 μL of MTT solution (5 mg/mL, Sigma-Aldrich) was added per well, and the cells were incubated for an additional 4 h. Afterwards, the supernatant was removed and 150 μL of DMSO was added. The 96-well plate was placed on the shaker for 10–15 min, and then the absorbance at 492 nm was measured by a microplate reader.

AChE (from electric eel) = molecular target: T1, AChE (from electric eel) (Electrophorus electricus, UniProt O42275); assay: biochemical; settings: AChE from electric eel; mean ± SD of three experiments; read-out: AChE Inhibition (IC50)
T1 construct: AChE (from electric eel); purchased Sigma Chemical Company (St. Louis, MO, USA)
Experimental: (§1) The ChE inhibitory activity of the test compounds was determined using the modified Ellman’s method. The compounds were dissolved in DMSO (10 mmol/L) and then diluted with PB (phosphate buffer) solution to attain a range of final concentrations. […] Briefly, 100 μL of different concentrations of the test or standard compounds and 100 μL of AChE/BuChE (0.5 U/mL) were added into 48-well plates and then co-incubated at 37 °C for 30 min. […] All concentrations mentioned are final.

[1] = molecular target: T2, BuChE (from equine serum) (Equus caballus, UniProt P81908); assay: biochemical; settings: mean ± SD of three experiments, read-out: BuChE Inhibition (IC50)
T2 construct: BuChE (from equine serum); purchased Sigma Chemical Company (St. Louis, MO, USA); host or cells: equine serum
Experimental: as §1

PC12 cells = assay: Cytotoxicity in PC12 cells (MTT); format: cell-based
Experimental: The cytotoxicity and neuroprotective effects of the compounds on PC12 cells were evaluated by MTT assay. PC12 cells were seeded into a 96-well plate at a density of 5.0 × 10^3 cells per well. After the cells were incubated overnight, the old medium was discarded. The cells were incubated for another 24 h with fresh medium containing compounds at a concentration of 30 or 50 μM. A total of 20 μL of MTT solution (5 mg/mL, Sigma-Aldrich, Shanghai, China) was then added per well, and the cells were incubated for an additional 4 h. Afterwards, the supernatant was removed and 150 μL of DMSO was added to solubilize formazan crystals. The 96-well plate was placed on the shaker for 10–15 min, and then the absorbance at 492 nm was measured by a microplate reader.

[2] = test system: adjuvant-induced arthritis (AIA) rats; parameters: method as in PMID 36450214; settings: cited from earlier work
DPPH radical scavenging = format: physicochemical; settings: vs no-compound group
Experimental: DPPH is a commercially available stable organic nitrogen radical with maximum UV absorption at 515 nm. After reduction, the color of the solution fades (absorbance decreases). Therefore, this method was used to evaluate the antioxidant capacity of the compounds. In short, 50 μL of DPPH (140 μM) and 50 μL of different concentrations (10, 100, and 1000 μM) of compound 4h were added together in a 96-well plate and then incubated in the dark at 37 °C for 2 h. The absorbance was measured at 515 nm through the multifunctional microplate reader. The scavenging rate (SR) of DPPH radicals was calculated by the following formula: SR = (1 − Ac/A0) × 100%, where “Ac” is the absorbance of DPPH and the compound solution incubating, and “A0” is the absorbance of the DPPH radical-ethanol solution alone. The experimental results are expressed as the average of three tests.

Aβ1-42 = Aβ1-42 (Homo sapiens, UniProt P05067); assay: Self-induced Aβ1-42 aggregation, thioflavin T fluorescence; format: biochemical; parameters: final concentrations of 20 μM of Aβ1-42 and 100 μM of test compound; purchased Beyotime Institute of Biotechnology; settings: read-out: Inhibition of Self-Induced Aβ Aggregation (%)
Experimental: The inhibitory effect of compounds on Aβ42 was determined by Thioflavin T (ThT) fluorescence assay. In short, the dilution of Aβ42 solution (Beyotime Biotechnology, Hang Zhou, China) and test compounds was carried out with phosphate buffer (50 mM, pH 7.4) to obtain final concentrations of 20 μM of Aβ1-42 and 100 μM of test compound, such as curcumin (20 μM). The mixture was incubated in 96-well plates at room temperature for 48 h in the dark. When the incubation was complete, the samples were diluted to 200 µL (final volume) with glycine–NaOH buffer (50 mM, pH 8.0) containing 5 μM ThT.

BuChE = molecular target: T3, BuChE (Equus caballus, UniProt P81908); assay: Reversibility of BuChE inhibition, dilution method; format: biochemical; settings: control 100
T3 construct: BuChE (from equine serum); purchased Sigma Chemical Company (St. Louis, MO, USA); host or cells: equine serum
Experimental: The activities of the diluted residual enzymes were measured by Ellman’s modified method.
Reversibility studies were performed using a modified Ellman’s dilution method to measure the activity of the diluted residual enzyme. The AChE/BuChE (0.5 U/mL), ATCI/BTCI (0.01 M) and DTNB (0.01 M) were diluted with phosphate buffer pH = 7.4. […] At the end of incubation, 20 μL of DTNB solution was added to them. […] All the measured results are expressed as the mean ± SEM of the three independent experiments.

in vitro = in vitro ADME, SD rats; settings: SD rat liver microsomes
Experimental: The incubation was terminated at different time points by adding 0.5 mL of ice-cold CH3CN. A parallel incubation was performed in the absence of a NADPH-regenerating system with microsomes as the negative control, and the reactions were terminated after the corresponding time incubation. After centrifugation with 12,500 rpm at 4 °C for 10 min, the supernatant was directly analyzed by the HPLC UV systems (Agilent HPLC 1200 instrument). Three independent experiments were performed in triplicate.

SY5Y cells = assay: H2O2-induced intracellular ROS in SY5Y cells (DCFH-DA); format: cell-based; settings: 100 μM, vs untreated control 100, H2O2 group 151.76
Experimental: A 2’, 7’-dichlorofluorescein diacetate (DCFH-DA, Sigma Aldrich) probe was applied to determine intracellular ROS production. It can penetrate cells and be rapidly oxidized by intracellular ROS to highly fluorescent 2′,7′-dichlorofluorescein (DCF). Intracellular fluorescence intensity is proportional to intracellular ROS levels. PC12 cells or SY5Y cells were seeded into a black 96-well plate at a density of 1.0 × 10^4 cells per well. After the cells were incubated overnight, the old medium was discarded. PC12 cells or SY5Y cells were cultured in a medium containing test compound 4h with or without various concentrations (1, 7.5, 15, 30, and 50 μM) for 6 h. […] Then, they were washed again with PBS, then DCFH-DA […] probe was added to each well and incubated at 37 °C for 1 h. After the cells were washed 3 times, the fluorescence intensity was measured in a Synergy HTX fluorescence microplate reader (λex = 485 nm, λem = 528 nm).

T1 sequence (O42275 24-633): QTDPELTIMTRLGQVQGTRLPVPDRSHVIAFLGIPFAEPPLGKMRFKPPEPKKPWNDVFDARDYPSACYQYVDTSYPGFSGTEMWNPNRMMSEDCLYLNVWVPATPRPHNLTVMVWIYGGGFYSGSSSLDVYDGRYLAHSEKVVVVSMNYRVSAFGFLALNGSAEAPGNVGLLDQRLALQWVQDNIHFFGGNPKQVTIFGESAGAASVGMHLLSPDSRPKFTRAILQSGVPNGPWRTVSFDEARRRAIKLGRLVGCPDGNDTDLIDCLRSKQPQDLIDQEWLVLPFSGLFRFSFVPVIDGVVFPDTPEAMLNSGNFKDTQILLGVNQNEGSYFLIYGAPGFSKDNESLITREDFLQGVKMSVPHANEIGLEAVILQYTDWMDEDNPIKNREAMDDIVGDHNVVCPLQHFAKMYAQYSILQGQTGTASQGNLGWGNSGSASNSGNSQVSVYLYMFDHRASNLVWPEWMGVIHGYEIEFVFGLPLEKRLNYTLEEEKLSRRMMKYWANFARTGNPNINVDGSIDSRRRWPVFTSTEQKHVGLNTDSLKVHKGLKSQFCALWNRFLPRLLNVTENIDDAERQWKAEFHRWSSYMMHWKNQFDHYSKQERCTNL
T2 sequence (P81908 whole entry): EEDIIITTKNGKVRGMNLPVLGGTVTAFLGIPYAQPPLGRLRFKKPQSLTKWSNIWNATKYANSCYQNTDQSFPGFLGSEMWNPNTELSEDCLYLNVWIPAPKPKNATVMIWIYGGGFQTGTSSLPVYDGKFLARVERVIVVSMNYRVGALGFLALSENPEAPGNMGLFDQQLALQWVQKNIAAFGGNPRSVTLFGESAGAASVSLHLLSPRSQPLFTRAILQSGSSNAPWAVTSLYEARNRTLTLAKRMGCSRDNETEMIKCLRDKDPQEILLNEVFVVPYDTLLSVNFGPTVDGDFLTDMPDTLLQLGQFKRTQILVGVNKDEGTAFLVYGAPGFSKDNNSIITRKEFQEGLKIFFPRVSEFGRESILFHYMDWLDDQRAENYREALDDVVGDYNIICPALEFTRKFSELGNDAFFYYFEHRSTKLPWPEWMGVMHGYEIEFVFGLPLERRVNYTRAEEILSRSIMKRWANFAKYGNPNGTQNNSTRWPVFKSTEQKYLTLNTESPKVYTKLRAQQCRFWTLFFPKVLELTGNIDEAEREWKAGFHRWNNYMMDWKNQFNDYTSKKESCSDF
Chain of Aβ1-42 (P05067 672-713 limits assumed): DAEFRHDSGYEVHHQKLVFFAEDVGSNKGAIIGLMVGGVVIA
T3 sequence (P81908 whole entry): as the sequence (P81908 whole entry) above

Compound | H2O2-Induced PC12 Cell Viability (% of Control) (H2O2-induced PC12 cells; compound 10 μM) | H2O2-Induced PC12 Cell Viability (% of Control) (H2O2-induced PC12 cells; compound 30 μM) | IC50 (AChE (from electric eel)) | IC50 [1] | Cell Viability (% of Control) (PC12 cells; compound 30 μM) | Cell Viability (% of Control) (PC12 cells; compound 50 μM) | other results
O=C1c2ccccc2-n2c1nc1ccc(NS(=O)(=O)c3ccc(F)cc3)cc1c2=O [8f] | 34.24 ± 3.5 % of Control | 42.25 ± 1.7 % of Control | 43 ± 1.12 µM | > 50 µM | 99.4 ± 1.7 % of Control | 98.3 ± 3.0 % of Control | –
O=C1c2ccccc2-n2c1nc1ccc(NS(=O)(=O)c3cccc(F)c3)cc1c2=O [8g] | 44.37 ± 0.5 % of Control | 52.28 ± 2.3 % of Control | > 50 µM | > 50 µM | 99.6 ± 1.2 % of Control | 99.5 ± 2.7 % of Control | –
O=C1c2ccccc2-n2c1nc1ccc(NS(=O)(=O)c3ccccc3F)cc1c2=O [8h] | 36.03 ± 3.0 % of Control | 46.73 ± 3.5 % of Control | > 50 µM | > 50 µM | 99.4 ± 1.4 % of Control | 98.3 ± 2.7 % of Control | –
CC(=O)Nc1ccc(S(=O)(=O)Nc2ccc3nc4n(c(=O)c3c2)-c2ccccc2C4=O)cc1 [8i] | 48.46 ± 1.6 % of Control | 59.63 ± 2.5 % of Control | > 50 µM | 25.9 ± 2.38 µM | 99.8 ± 1.2 % of Control | 99.4 ± 1.3 % of Control | –
COc1ccc(S(=O)(=O)Nc2ccc3nc4n(c(=O)c3c2)-c2ccccc2C4=O)cc1 [8j] | 38.02 ± 3.1 % of Control | 47.36 ± 6.1 % of Control | > 50 µM | 10.2 ± 2.41 µM | 99.9 ± 1.5 % of Control | 98.9 ± 2.1 % of Control | Anti-inflammatory activity in the AIA model [2]: exhibited good anti-inflammatory activity in the AIA model
COc1ccc(S(=O)(=O)Nc2ccc3nc4n(c(=O)c3c2)-c2ccccc2C4=O)cc1OC [8k] | 44.37 ± 0.5 % of Control | 52.28 ± 2.3 % of Control | > 50 µM | > 50 µM | 99.6 ± 1.2 % of Control | 99.5 ± 2.7 % of Control | –
COc1ccc(S(=O)(=O)Nc2ccc3nc4n(c(=O)c3c2)-c2ccccc2C4=O)c(OC)c1 [8l] | 34.61 ± 3.7 % of Control | 38.1 ± 2.7 % of Control | > 50 µM | > 50 µM | 99.4 ± 1.1 % of Control | 98.7 ± 1.3 % of Control | –
O=C1c2ccccc2-n2c1nc1ccc(NS(=O)(=O)c3ccc(OC(F)(F)F)cc3)cc1c2=O [8m] | 44.67 ± 2.3 % of Control | 53.92 ± 3.9 % of Control | > 50 µM | > 50 µM | 99.5 ± 3.1 % of Control | 98.2 ± 1.7 % of Control | –
O=C1c2ccccc2-n2c1nc1ccc(NS(=O)(=O)c3ccccc3OC(F)(F)F)cc1c2=O [8n] | 38.94 ± 1.5 % of Control | 49.96 ± 0.8 % of Control | 42 ± 1.7 µM | > 50 µM | 99.2 ± 1.9 % of Control | 98.3 ± 2.7 % of Control | –
O=C1c2ccccc2-n2c1nc1ccc(NS(=O)(=O)c3ccccc3C(F)(F)F)cc1c2=O [8o] | 42.56 ± 2.1 % of Control | 54.6 ± 3.8 % of Control | 8.86 ± 0.76 µM | > 50 µM | 99.7 ± 2.4 % of Control | 99.4 ± 1.1 % of Control | –
O=C1c2ccccc2-n2c1nc1ccc(NS(=O)(=O)c3c(Cl)cccc3Cl)cc1c2=O [8p] | 42.32 ± 0.7 % of Control | 50.5 ± 0.5 % of Control | > 50 µM | > 50 µM | 99.6 ± 2.7 % of Control | 98.2 ± 1.7 % of Control | –
O=C1O[C@H]([C@@H](O)CO)C(O)=C1O [AA, Ascorbic acid, reference compound] | – | – | – | – | – | – | Concentration of DPPH (%) (DPPH radical scavenging; 10 μM compound): 77.43 ± 2.76%; Concentration of DPPH (%) (DPPH radical scavenging; 100 μM compound): 58.10 ± 3.42%; Concentration of DPPH (%) (DPPH radical scavenging; 1000 μM compound): 24.2 ± 1.85%
COc1cc(/C=C/C(=O)CC(=O)/C=C/c2ccc(O)c(OC)c2)ccc1O [Curcumin] | – | – | – | – | – | – | inhibition at 20 µM (Aβ1-42; curcumin 20 μM (text b32), ThT, 48 h): 55.4 ± 2.31%
COc1cc2c(cc1OC)C(=O)C(CC1CCN(Cc3ccccc3)CC1)C2 (centres unmarked) [Donepezil, reference compound] | – | – | – | – | – | – | inhibition at 100 µM (Aβ1-42): 41.2 ± 1.87%; BuChE activity after dilution (reversibility) (BuChE; final inhibitor 0.1 × IC50 after 100-fold dilution): 94.1 ± 0.61; BuChE activity after dilution (reversibility) (BuChE; final inhibitor 1 × IC50 after 100-fold dilution): 89.4 ± 1.49
C[C@]12CC[C@H]3[C@@H](CCC4=CC(=O)CC[C@@]43C)[C@@H]1CC[C@@H]2O [Testosterone, reference compound] | – | – | – | – | – | – | K (in vitro): 0.2593 ± 0.04409 min⁻¹; T1/2 (in vitro): 2.4 ± 0.5 min
Cc1c(C)c2c(c(C)c1O)CCC(C)(C(=O)O)O2 (centres unmarked) [Trolox] | – | – | – | – | – | – | ROS in SY5Y cells (%) (SY5Y cells): 126.06 ± 2.68%
